Data taken from PubChem BioAssay AID1963846 (Molecular Pharmacology Branch, DTP, NCI, 2024).
Where “and” joins values, the source holds several entries; their conditions need not be identical. Identical values can stand only once.

System: 454973-116-R2-J3-PDC complex spheroid viability
Experiment: Anticancer human tumor 454973-116-R2-J3-PDC patient-derived pancreatic carcinoma cell line growth inhibition [POLQ]
Conditions: for viability, T/C: stronger effect = lower value
Experimental: Multicellular complex tumor spheroid response to Polymerase (POL) inhibitors (novobiocin, ART-558, RP6685) in combination with a variety of drugs and investigational agents in selected tumor cell lines
The POL inhibitors (novobiocin, ART-558, and RP6685) were evaluated both individually and in combination with standard of care and investigational anticancer small molecules within a complex spheroid model of solid tumors. . Complex spheroids include a stromal component modeled by human endothelial cells (HUVEC) and fibroblasts modeled by human mesenchymal stem cells (MSCs). The concentration ranges selected for each drug and investigational agent were based upon clinically achievable concentrations if the clinical Cmax of the agent was known.
Compounds. The drugs and investigational agents: novobiocin (NSC847541), ART-558 (NSC835418), RP-6685 (NSC848927), peposertib (NSC802822), ceralasertib (NSC780249), elimusertib (NSC800525), camonsertib (NSC841442), AZD-1390 (NSC803789), olaparib (NSC753686), talazoparib (NSC767125), rucaparib (NSC756644), sotorasib (NSC818433), MRTX-1133 (NSC836407), SN-38 (NSC673596), topotecan (NSC609699), epotoside (NSC141540), doxorubicin (NSC123127), gemcitabine (NSC613327), 5-fluorouracil (NSC19893), paclitaxel (NSC125973), vemurafenib (NSC761431), MSA-2 (NSC828583), SN-011 (NSC837082), adavosertib (NSC754352), prexasertib (NSC758257), carboplatin (NSC241240) and oxaliplatin (NSC266046), were obtained from the National Cancer Institute (NCI) Developmental Therapeutics Program Chemical Repository (21). The FDA-approved anticancer drug set is available from the Developmental Therapeutics Program at https://dtp.cancer.gov/organization/dscb/obtaining/. […] The stock solutions were prepared in dimethyl sulfoxide (DMSO, Sigma-Aldrich, St. Louis, MO, cat. D2650), except for the platinum compounds which were prepared in saline (Quality Biological, Gaithersburg, MD, cat. 114-055-101), at 800-fold the tested concentration and stored at -70 degrees C prior to their use. All drugs and investigational agents were tested over a range starting from a high concentration at or near the clinical Cmax and decreasing in half-log increments. If the clinical Cmax for an agent had not been determined, the highest concentration tested was 10 microM, except for SN-38, which was tested at a high concentration of 1 microM.
Cell Culture. All cells were maintained in an incubator at 37 degrees C and 5% CO2 with 95% humidity. The PDC lines were cultured according to standard operating procedures established by the NCI PDMR (https://pdmr.cancer.gov). Table 3 of the manuscript, lists the cell lines along with the number of the three cell types plated to form the mct-spheroids and media for tumor cell growth. After thawing, all PDC lines, except 997537-175-T-J1-PDC and 415267-285-R-J2-PDC, were cultured in Matrigel-coated flasks prepared with a working solution of 1X Ham's F-12 nutrient mix, without supplementation (Thermo Fisher Scientific, cat. 11765054), 100 U/mL penicillin-streptomycin (Thermo Fisher Scientific, cat. 15140122), and 2.5% Matrigel (Corning Inc., Corning, NY, cat. 354248) for the first three passages. The two PDC lines 997537-175-T-J1-PDC and 415267-285-R-J2-PDC were cultured on uncoated flasks. The 857933-349-R-J2-PDC line was cultured in 6C/Colon 1B media containing advanced DMEM/F-12 (Thermo Fisher Scientific, cat. 12634028), 10 mM HEPES (Thermo Fisher Scientific, cat. 15630080), 1X GlutaMAX supplement (Thermo Fisher Scientific, cat. 35050061), 0.1 mg/mL primocin (InvivoGen, San Diego, CA, cat. ant-pm-2), 10% defined fetal bovine serum, heat inactivated (HyClone Laboratories Inc., Logan, UT, cat. SH30070.03HI), 50% L-WRN conditioned media (ATCC, cat. CRL-3276), 1.25 mM N-Acetyl-L-cysteine (Sigma-Aldrich, cat. A9165), 10 mM nicotinamide (Sigma-Aldrich, cat. N0636), 1X B-27 supplement (Thermo Fisher Scientific, cat. 17504044), 1X N-2 supplement (Thermo Fisher Scientific, cat. […]

[1] = curve of first compound, second compound 0.0316 µM
[2] = curve of first compound, second compound 0.1 µM
[3] = curve of first compound, second compound 0.316 µM
[4] = curve of first compound, second compound 1 µM
[5] = curve of first compound, second compound 3.16 µM
[6] = curve of first compound, second compound 10 µM
[7] = second compound 0.0316 µM, first compound 0.0316 µM
[8] = second compound 0.0316 µM, first compound 0.1 µM
[9] = second compound 0.0316 µM, first compound 0.316 µM
[10] = second compound 0.0316 µM, first compound 1 µM
[11] = second compound 0.0316 µM, first compound 3.16 µM
[12] = second compound 0.0316 µM, first compound 10 µM
[13] = second compound 0.1 µM, first compound 0.0316 µM
[14] = second compound 0.1 µM, first compound 0.1 µM
[15] = second compound 0.1 µM, first compound 0.316 µM
[16] = second compound 0.1 µM, first compound 1 µM
[17] = second compound 0.1 µM, first compound 3.16 µM
[18] = second compound 0.1 µM, first compound 10 µM
[19] = second compound 0.316 µM, first compound 0.0316 µM
[20] = second compound 0.316 µM, first compound 0.1 µM
[21] = second compound 0.316 µM, first compound 0.316 µM
[22] = second compound 0.316 µM, first compound 1 µM
[23] = second compound 0.316 µM, first compound 3.16 µM
[24] = second compound 0.316 µM, first compound 10 µM
[25] = second compound 1 µM, first compound 0.0316 µM
[26] = second compound 1 µM, first compound 0.1 µM
[27] = second compound 1 µM, first compound 0.316 µM
[28] = second compound 1 µM, first compound 1 µM
[29] = second compound 1 µM, first compound 3.16 µM
[30] = second compound 1 µM, first compound 10 µM
[31] = second compound 3.16 µM, first compound 0.0316 µM
[32] = second compound 3.16 µM, first compound 0.1 µM
[33] = second compound 3.16 µM, first compound 0.316 µM
[34] = second compound 3.16 µM, first compound 1 µM
[35] = second compound 3.16 µM, first compound 3.16 µM
[36] = second compound 3.16 µM, first compound 10 µM
[37] = second compound 10 µM, first compound 0.0316 µM
[38] = second compound 10 µM, first compound 0.1 µM
[39] = second compound 10 µM, first compound 0.316 µM
[40] = second compound 10 µM, first compound 1 µM
[41] = second compound 10 µM, first compound 3.16 µM
[42] = second compound 10 µM, first compound 10 µM
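Also: spheroids exposed to drugs for seven days before measurement.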
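For viability, T/C in this document: percent viability relative to DMSO vehicle control wells taken as 100%.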

In the case of `CNCc1ccc(-c2[nH]c3cc(F)cc4c3c2CCNC4=O)cc1` + Nc1ccc(C#CCN(C(=O)Cc2ncc(C(F)(F)F)cc2C(F)(F)F)c2ccc(F)cc2)nn1, the IC50 [1] is reported as > 10 µM, the IC50 [2] is reported as > 10 µM and the IC50 [3] is reported as > 10 µM. For the same molecule, the IC50 [4] was > 10 µM, the IC50 [5] was > 10 µM and the IC50 [6] was > 10 µM. It also gave a viability, T/C [7] of 114%, a viability, T/C [8] of 101% and a viability, T/C [9] of 109%. The viability, T/C [10] was 94.5%, the viability, T/C [11] was 104% and the viability, T/C [12] was 91.9%. The viability, T/C [13] was 103%, the viability, T/C [14] was 96.2% and the viability, T/C [15] was 95.8%. It also gave a viability, T/C [16] of 90.3%, a viability, T/C [17] of 98.2% and a viability, T/C [18] of 95.4%. The viability, T/C [19] was 105%, the viability, T/C [20] was 100% and the viability, T/C [21] was 105%. The viability, T/C [22] was 95.6%, the viability, T/C [23] was 101% and the viability, T/C [24] was 95.9%. It also gave a viability, T/C [25] of 110%, a viability, T/C [26] of 106% and a viability, T/C [27] of 106%. It also gave a viability, T/C [28] of 108%, a viability, T/C [29] of 110% and a viability, T/C [30] of 91%. For the same molecule, the viability, T/C [31] was 113%, the viability, T/C [32] was 115% and the viability, T/C [33] was 108%. For the same molecule, the viability, T/C [34] was 98.7%, the viability, T/C [35] was 121% and the viability, T/C [36] was 90.6%. The viability, T/C [37] was 116%, the viability, T/C [38] was 102% and the viability, T/C [39] was 112%. For the same molecule, the viability, T/C [40] was 117%, the viability, T/C [41] was 119% and the viability, T/C [42] was 85%.

`C#Cc1c(F)ccc2cc(O)cc(-c3ncc4c(N5CC6CCC(C5)N6)nc(OCC56CCCN5CC(F)C6)nc4c3F)c12` (stereo not given) was tested, and the viability, T/C (compound 0.0316 µM) was 57.4% and 52.2% and 68.6%, the viability, T/C (compound 0.1 µM) was 44.5% and 37.2% and 52.2% and the viability, T/C (compound 0.316 µM) was 32.2% and 26% and 35.8%. The viability, T/C (compound 1 µM) was 28.6% and 24.5% and 29.1%, the viability, T/C (compound 3.16 µM) was 23.6% and 21.5% and 29.5% and the viability, T/C (compound 10 µM) was 21.4% and 19.2% and 26.2%. The IC50 (curve of compound) was 0.0591 µM and 0.0375 µM and 0.117 µM.

With `CCc1cc2c(N3CCc4c(cc(Cn5ccnc5)cc4-c4cn(C)nc4C(F)(F)F)C3=O)ccnc2c(OC)n1` + COC1C(OC(N)=O)C(O)C(Oc2ccc3c(O)c(NC(=O)c4ccc(O)c(CC=C(C)C)c4)c(=O)oc3c2C)OC1(C)C the IC50 [1] was > 10 µM, the IC50 [2] was > 10 µM and the IC50 [3] was > 10 µM. For the same molecule, the IC50 [4] was > 10 µM, the IC50 [5] was > 10 µM and the IC50 [6] was > 10 µM. The viability, T/C [7] was 109%, the viability, T/C [8] was 107% and the viability, T/C [9] was 96.7%. For the same molecule, the viability, T/C [10] was 86.4%, the viability, T/C [11] was 90.8% and the viability, T/C [12] was 72.8%. It also gave a viability, T/C [13] of 101%, a viability, T/C [14] of 96% and a viability, T/C [15] of 96.8%. The viability, T/C [16] was 96.8%, the viability, T/C [17] was 91.5% and the viability, T/C [18] was 81.5%. It also gave a viability, T/C [19] of 99.8%, a viability, T/C [20] of 104% and a viability, T/C [21] of 96.5%. The viability, T/C [22] was 96.4%, the viability, T/C [23] was 88.8% and the viability, T/C [24] was 82.1%. It also gave a viability, T/C [25] of 112%, a viability, T/C [26] of 104% and a viability, T/C [27] of 99%. It also gave a viability, T/C [28] of 93.7%, a viability, T/C [29] of 85.8% and a viability, T/C [30] of 76.6%. The viability, T/C [31] was 107%, the viability, T/C [32] was 102% and the viability, T/C [33] was 97.8%. The viability, T/C [34] was 86.8%, the viability, T/C [35] was 82.4% and the viability, T/C [36] was 72.2%. For the same molecule, the viability, T/C [37] was 113%, the viability, T/C [38] was 99% and the viability, T/C [39] was 96%. For the same molecule, the viability, T/C [40] was 86.5%, the viability, T/C [41] was 84% and the viability, T/C [42] was 72.9%.

With `C=CCn1c(=O)c2cnc(Nc3ccc(N4CCN(C)CC4)cc3)nc2n1-c1cccc(C(C)(C)O)n1` the viability, T/C (compound 0.00316 µM) was 108% and 106% and 102%, the viability, T/C (compound 0.01 µM) was 96.7% and 98.2% and 99.6% and the viability, T/C (compound 0.0316 µM) was 110% and 99.7% and 102%. For the same molecule, the viability, T/C (compound 0.1 µM) was 105% and 104% and 98.3%, the viability, T/C (compound 0.316 µM) was 86.9% and 73.9% and 63.5% and the viability, T/C (compound 1 µM) was 17.3% and 10.9% and 9.18%. For the same molecule, the IC50 (curve of compound) was 0.583 µM and 0.49 µM and 0.421 µM.

`O=C(c1cc(Cc2n[nH]c(=O)c3ccccc23)ccc1F)N1CCN(C(=O)C2CC2)CC1` was tested, and the viability, T/C (compound 0.0316 µM) was 105% and 99.8% and 97.1%, the viability, T/C (compound 0.1 µM) was 96.5% and 99% and 104% and the viability, T/C (compound 0.316 µM) was 101%. For the same molecule, the viability, T/C (compound 1 µM) was 91.2% and 104% and 90.5%, the viability, T/C (compound 3.16 µM) was 104% and 102% and 95.3% and the viability, T/C (compound 10 µM) was 60.6% and 62.5% and 54.9%. For the same molecule, the IC50 (curve of compound) was > 10 µM.
